Measured values reported in ChEMBL document CHEMBL2176888, “Structure-activity relationships in human Toll-like receptor 8-active 2,3-diamino-furo[2,3-c]pyridines” (J Med Chem, 2012).
Values belong to the compound of their own block, whether it stands above or below them. The source made the active and inactive calls. The calls are words filed in the database; no cut-off is given here.

How the values were obtained:
Type in all cases: functional, cell-based
[1] = target: T1, Toll-like receptor 9 (Homo sapiens) (UniProt Q9NR96); assay: Agonist activity at human TLR9 expressed in HEK293 cells assessed as induction of NF-kappaB activity by measuring extracellular secreted alkaline phosphatase up to 250 uM by HEK-blue reporter gene assay
T1 sequence (whole entry): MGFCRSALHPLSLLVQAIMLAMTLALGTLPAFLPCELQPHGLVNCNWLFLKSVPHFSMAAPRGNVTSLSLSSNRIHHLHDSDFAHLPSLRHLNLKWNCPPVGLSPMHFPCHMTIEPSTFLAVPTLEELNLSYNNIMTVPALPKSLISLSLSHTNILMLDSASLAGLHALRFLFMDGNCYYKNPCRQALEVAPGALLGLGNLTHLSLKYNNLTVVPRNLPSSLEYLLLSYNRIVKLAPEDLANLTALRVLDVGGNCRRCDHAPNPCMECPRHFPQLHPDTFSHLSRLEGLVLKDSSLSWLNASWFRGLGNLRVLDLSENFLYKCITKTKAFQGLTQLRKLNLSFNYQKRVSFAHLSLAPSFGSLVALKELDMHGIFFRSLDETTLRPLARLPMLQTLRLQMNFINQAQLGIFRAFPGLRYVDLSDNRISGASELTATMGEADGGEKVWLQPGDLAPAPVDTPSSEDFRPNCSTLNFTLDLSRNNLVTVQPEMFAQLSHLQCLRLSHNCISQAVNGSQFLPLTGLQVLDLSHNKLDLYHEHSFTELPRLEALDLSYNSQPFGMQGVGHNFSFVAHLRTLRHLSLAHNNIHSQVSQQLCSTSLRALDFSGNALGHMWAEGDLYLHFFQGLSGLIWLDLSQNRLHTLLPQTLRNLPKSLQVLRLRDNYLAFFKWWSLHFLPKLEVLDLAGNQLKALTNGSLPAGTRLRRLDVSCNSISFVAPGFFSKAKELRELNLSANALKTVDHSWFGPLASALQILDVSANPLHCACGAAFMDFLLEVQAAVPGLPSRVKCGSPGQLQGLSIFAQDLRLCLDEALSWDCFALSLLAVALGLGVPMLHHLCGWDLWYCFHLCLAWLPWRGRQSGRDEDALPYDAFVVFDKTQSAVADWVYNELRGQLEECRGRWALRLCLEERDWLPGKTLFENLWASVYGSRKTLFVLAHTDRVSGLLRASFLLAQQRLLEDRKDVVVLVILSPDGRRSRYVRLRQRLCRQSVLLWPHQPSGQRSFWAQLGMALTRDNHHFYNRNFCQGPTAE

[2] = target: T2, Toll-like receptor 8 (Homo sapiens) (UniProt Q9NR97); assay: Agonist activity at human TLR8 expressed in HEK293 cells assessed as induction of NF-kappaB activity by measuring extracellular secreted alkaline phosphatase up to 250 uM by HEK-blue reporter gene assay
T2 sequence (whole entry): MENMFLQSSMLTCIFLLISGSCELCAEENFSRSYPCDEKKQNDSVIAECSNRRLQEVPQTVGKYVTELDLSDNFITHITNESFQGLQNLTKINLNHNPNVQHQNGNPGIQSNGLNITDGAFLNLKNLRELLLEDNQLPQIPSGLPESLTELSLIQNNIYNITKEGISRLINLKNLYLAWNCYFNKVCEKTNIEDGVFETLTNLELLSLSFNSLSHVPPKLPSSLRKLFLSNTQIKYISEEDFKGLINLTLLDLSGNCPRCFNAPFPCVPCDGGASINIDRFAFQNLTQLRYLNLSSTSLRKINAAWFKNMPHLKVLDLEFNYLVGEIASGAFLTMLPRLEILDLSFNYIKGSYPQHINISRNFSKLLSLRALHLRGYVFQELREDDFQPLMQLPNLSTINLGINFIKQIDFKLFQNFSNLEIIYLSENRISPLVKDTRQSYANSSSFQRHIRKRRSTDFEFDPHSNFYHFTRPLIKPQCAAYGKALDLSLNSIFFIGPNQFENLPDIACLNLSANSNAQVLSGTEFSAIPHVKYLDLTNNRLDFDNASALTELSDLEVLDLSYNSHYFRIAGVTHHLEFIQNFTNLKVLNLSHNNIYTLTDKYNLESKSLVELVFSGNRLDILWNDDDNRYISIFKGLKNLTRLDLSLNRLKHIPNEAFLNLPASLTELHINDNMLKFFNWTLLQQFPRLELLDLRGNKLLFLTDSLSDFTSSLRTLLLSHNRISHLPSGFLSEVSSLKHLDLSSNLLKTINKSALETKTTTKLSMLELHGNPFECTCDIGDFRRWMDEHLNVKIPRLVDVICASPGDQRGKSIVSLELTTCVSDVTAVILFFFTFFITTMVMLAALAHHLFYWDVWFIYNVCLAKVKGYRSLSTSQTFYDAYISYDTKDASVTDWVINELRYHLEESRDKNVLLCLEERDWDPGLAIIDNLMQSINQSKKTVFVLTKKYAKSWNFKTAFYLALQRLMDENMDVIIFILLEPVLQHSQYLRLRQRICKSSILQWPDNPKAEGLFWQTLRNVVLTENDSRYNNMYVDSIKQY

[3] = target: T3, Toll-like receptor 7 (Homo sapiens) (UniProt Q9NYK1); assay: Agonist activity at human TLR7 expressed in HEK293 cells assessed as induction of NF-kappaB activity by measuring extracellular secreted alkaline phosphatase up to 250 uM by HEK-blue reporter gene assay
T3 sequence (whole entry): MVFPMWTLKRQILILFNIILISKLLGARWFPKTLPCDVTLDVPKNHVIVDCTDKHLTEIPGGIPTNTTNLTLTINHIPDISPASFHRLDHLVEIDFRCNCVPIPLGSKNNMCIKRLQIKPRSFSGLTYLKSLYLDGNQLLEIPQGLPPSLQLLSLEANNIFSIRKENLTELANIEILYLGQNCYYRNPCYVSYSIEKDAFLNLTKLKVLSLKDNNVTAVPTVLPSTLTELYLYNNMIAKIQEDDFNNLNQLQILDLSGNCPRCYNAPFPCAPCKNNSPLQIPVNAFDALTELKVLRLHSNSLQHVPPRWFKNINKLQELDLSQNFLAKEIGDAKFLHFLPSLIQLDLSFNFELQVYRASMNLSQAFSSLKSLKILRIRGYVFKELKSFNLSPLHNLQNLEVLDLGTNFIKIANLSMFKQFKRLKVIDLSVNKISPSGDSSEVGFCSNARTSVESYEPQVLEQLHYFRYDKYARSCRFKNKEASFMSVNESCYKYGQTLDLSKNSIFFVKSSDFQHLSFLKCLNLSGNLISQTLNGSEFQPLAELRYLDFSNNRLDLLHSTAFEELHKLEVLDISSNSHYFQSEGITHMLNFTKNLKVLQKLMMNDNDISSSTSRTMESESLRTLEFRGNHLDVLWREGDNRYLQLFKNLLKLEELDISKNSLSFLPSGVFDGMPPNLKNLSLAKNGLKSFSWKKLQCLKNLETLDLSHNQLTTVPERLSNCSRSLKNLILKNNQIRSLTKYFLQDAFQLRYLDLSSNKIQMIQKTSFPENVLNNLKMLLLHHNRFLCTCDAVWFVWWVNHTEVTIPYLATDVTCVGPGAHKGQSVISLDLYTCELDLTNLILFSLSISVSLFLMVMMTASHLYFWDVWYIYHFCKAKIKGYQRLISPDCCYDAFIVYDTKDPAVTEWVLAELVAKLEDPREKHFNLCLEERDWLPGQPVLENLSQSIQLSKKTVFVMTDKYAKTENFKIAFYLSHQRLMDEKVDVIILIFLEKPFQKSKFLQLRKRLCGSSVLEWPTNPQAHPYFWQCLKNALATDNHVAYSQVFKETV

[4] = target: Toll-like receptor 5 (Homo sapiens) (UniProt O60602); assay: Agonist activity at human TLR5 expressed in HEK293 cells assessed as induction of NF-kappaB activity by measuring extracellular secreted alkaline phosphatase up to 250 uM by HEK-blue reporter gene assay
Toll-like receptor 5 (Homo sapiens), sequence (O60602 whole entry): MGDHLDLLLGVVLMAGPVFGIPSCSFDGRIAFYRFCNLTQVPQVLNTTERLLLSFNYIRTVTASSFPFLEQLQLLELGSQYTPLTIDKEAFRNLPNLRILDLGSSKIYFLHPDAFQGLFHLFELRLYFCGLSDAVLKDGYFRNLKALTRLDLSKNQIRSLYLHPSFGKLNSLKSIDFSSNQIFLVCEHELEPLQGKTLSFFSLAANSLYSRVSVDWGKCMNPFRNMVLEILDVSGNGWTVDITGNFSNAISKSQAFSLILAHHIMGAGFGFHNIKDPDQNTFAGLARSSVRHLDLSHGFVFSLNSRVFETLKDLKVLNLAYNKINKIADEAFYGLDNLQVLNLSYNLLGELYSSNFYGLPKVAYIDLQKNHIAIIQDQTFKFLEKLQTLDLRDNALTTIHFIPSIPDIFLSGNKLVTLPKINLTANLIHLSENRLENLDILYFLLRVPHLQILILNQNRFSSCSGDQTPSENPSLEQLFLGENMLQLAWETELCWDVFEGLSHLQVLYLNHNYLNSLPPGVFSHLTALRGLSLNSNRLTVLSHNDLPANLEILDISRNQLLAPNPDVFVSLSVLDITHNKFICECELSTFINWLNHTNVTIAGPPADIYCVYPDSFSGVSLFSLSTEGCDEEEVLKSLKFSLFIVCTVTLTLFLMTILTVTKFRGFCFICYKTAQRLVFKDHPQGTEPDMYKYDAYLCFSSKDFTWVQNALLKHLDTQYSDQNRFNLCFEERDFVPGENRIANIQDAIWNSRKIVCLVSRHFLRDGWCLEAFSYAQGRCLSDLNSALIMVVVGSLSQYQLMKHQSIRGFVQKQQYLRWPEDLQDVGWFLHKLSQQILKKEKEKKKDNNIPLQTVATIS

[5] = target: Toll-like receptor 4 (Homo sapiens) (UniProt O00206); assay: Agonist activity at human TLR4 expressed in HEK293 cells assessed as induction of NF-kappaB activity by measuring extracellular secreted alkaline phosphatase up to 250 uM by HEK-blue reporter gene assay
Toll-like receptor 4 (Homo sapiens), sequence (O00206 whole entry): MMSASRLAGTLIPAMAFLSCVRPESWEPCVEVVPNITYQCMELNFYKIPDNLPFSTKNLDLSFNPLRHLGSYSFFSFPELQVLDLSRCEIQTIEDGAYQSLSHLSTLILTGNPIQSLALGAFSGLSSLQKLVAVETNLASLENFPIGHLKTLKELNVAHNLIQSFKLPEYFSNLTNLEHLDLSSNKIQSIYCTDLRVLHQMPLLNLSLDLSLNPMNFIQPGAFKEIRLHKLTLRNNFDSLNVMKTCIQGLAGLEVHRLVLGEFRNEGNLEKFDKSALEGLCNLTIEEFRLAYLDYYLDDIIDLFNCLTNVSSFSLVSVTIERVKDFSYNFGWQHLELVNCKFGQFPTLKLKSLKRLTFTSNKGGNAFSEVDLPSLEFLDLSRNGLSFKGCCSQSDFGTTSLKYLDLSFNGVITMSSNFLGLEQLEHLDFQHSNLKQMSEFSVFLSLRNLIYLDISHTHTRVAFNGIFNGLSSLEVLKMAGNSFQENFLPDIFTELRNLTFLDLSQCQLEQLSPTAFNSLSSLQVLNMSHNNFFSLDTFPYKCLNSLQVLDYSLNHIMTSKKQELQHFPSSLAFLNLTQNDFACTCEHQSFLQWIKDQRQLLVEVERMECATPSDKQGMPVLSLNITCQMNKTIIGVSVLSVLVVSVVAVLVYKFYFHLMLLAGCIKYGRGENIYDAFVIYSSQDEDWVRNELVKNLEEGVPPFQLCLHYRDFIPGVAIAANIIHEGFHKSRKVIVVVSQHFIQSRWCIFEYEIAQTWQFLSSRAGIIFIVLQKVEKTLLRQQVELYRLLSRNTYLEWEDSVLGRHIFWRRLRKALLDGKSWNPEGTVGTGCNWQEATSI

[6] = target: Toll-like receptor 3 (Homo sapiens) (UniProt O15455); assay: Agonist activity at human TLR3 expressed in HEK293 cells assessed as induction of NF-kappaB activity by measuring extracellular secreted alkaline phosphatase up to 250 uM by HEK-blue reporter gene assay
Toll-like receptor 3 (Homo sapiens), sequence (O15455 whole entry): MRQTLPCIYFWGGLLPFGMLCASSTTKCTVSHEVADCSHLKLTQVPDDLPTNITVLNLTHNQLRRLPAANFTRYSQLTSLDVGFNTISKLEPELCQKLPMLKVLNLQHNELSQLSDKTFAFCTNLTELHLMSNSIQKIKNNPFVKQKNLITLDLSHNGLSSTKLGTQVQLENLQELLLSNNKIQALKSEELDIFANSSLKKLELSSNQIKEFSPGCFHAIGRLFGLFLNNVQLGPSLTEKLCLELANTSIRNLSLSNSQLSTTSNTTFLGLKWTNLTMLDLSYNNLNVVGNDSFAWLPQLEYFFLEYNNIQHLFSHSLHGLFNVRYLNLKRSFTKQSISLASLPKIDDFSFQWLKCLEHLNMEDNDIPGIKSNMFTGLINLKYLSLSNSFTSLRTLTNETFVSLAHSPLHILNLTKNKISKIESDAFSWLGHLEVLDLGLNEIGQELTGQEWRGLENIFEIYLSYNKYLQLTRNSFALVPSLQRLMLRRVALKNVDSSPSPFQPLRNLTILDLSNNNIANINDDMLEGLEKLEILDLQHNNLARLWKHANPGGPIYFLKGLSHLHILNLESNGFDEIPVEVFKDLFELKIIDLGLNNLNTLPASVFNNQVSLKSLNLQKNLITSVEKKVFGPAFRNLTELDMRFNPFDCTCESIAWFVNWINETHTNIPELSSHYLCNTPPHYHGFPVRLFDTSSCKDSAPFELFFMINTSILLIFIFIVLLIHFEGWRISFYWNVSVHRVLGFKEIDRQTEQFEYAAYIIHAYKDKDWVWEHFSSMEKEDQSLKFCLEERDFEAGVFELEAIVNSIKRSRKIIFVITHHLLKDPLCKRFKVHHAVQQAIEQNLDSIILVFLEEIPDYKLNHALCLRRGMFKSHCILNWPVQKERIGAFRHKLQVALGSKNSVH

Toll-like receptor 8 = target: T4, Toll-like receptor 8 (Homo sapiens, UniProt Q9NR97); assay: Agonist activity at human TLR8 expressed in HEK293 cells assessed as induction of NF-kappaB activity by measuring extracellular secreted alkaline phosphatase by HEK-blue reporter gene assay
T4 sequence (Q9NR97 whole entry): T2 sequence (whole entry)

Compound: Cc1ncc(CO)c2c(Nc3ccccn3)c(NC3CCCCC3)oc12
EC50 (Toll-like receptor 8; read-out: EC50): 6.93 µM

Compound: Cc1ncc(CO)c2c(Nc3cnccn3)c(NC3CCCCC3)oc12
EC50 (Toll-like receptor 8; read-out: EC50): 10.6 µM

Compound: CCCCCNc1oc2c(C)ncc(CO)c2c1Nc1cccc([N+](=O)[O-])c1
EC50 (Toll-like receptor 8; read-out: EC50): 0.85 µM

Compound: CCCCCNc1oc2c(C)ncc(CO)c2c1Nc1cccc(F)c1
EC50 (Toll-like receptor 8; read-out: EC50): 0.37 µM

Compound: Cc1ncc(CO)c2c(Nc3ccccn3)c(NCCCCCCNc3oc4c(C)ncc(CO)c4c3Nc3ccccn3)oc12
EC50 (Toll-like receptor 8; read-out: EC50): 3.37 µM

Compound: Cc1cccc(Cl)c1Nc1oc2c(C)ncc(CO)c2c1Nc1ccccn1
EC50 (Toll-like receptor 8; hek293): Not Active

Compound: Cc1ncc(CO)c2c(Nc3ccccc3)c(NCc3ccccc3)oc12
EC50 (Toll-like receptor 8; read-out: EC50): 1.68 µM

Compound: CCOC(=O)CNc1oc2c(C)ncc(CO)c2c1Nc1ccccn1
EC50 (Toll-like receptor 8; hek293): Not Active

Compound: CCCCCNc1oc2c(C)ncc(CO)c2c1Nc1ccccc1
EC50 (Toll-like receptor 8; read-out: EC50): 2.25 µM

Compound: Cc1ncc(CO)c2c(Nc3ccccn3)c(NC(C)(C)CC(C)(C)C)oc12
EC50 (Toll-like receptor 8; hek293): Not Active

Compound: Cc1ncc(CO)c2c(Nc3ccccn3)c(N[C@@H](C)c3ccccc3)oc12
EC50 (Toll-like receptor 8; read-out: EC50): 4.27 µM

Compound: COc1ccc(Nc2oc3c(C)ncc(CO)c3c2Nc2ccccn2)cc1
EC50 (Toll-like receptor 8; hek293): Not Active

Compound: Cc1ncc(CO)c2c(Nc3ccccn3)c(NC(C)C)oc12
EC50 (Toll-like receptor 8; hek293): Not Active

Compound: Cc1ncc(CO)c2c(Nc3ccccn3)c(N)oc12
EC50 (Toll-like receptor 8; hek293): Not Active

Compound: Cc1ncc(CO)c2c(Nc3ccccn3)c(NCCN3CCOCC3)oc12
EC50 (Toll-like receptor 8; hek293): Not Active

Compound: CCCC(C)Nc1oc2c(C)ncc(CO)c2c1Nc1ccccn1 (stereo unspecified)
EC50 (Toll-like receptor 8; read-out: EC50): 9.01 µM

Compound: CCOP(=O)(CNc1oc2c(C)ncc(CO)c2c1Nc1ccccn1)OCC
EC50 (Toll-like receptor 8; hek293): Not Active

Compound: Cc1ncc(CO)c2c(Nc3cnccn3)c(NCc3ccccc3)oc12
EC50 (Toll-like receptor 8; read-out: EC50): 9.79 µM

Compound: Cc1ncc(CO)c2c(Nc3ccccn3)c(NCCC(=O)OC(C)(C)C)oc12
EC50 (Toll-like receptor 8; read-out: EC50): 7.64 µM

The next lines start with the values.

Activity [1]: inactive | Activity [2]: inactive | Activity [3]: inactive | Activity [4]: inactive | Activity [5]: inactive | Activity [6]: inactive
Compound: Nc1nccn2c(NC3CCCCC3)c(-c3ccc(-c4ccccc4)cc3)nc12

Activity [1]: inactive | Activity [2]: inactive | Activity [3]: inactive | Activity [4]: inactive | Activity [5]: inactive | Activity [6]: inactive
Compound: CC(C)(C)Nc1c(-c2ccccc2)nc2cnccn12

Activity [1]: inactive | Activity [2]: inactive | Activity [3]: inactive | Activity [4]: inactive | Activity [5]: inactive | Activity [6]: inactive
Compound: Oc1ccccc1-c1nc2ccccn2c1NC1CCCCC1

Activity [1]: inactive | Activity [2]: inactive | Activity [3]: inactive | Activity [4]: inactive | Activity [5]: inactive | Activity [6]: inactive
Compound: c1ccc(CNc2c(-c3ccccc3)nc3cnccn23)cc1

Activity [1]: inactive | Activity [2]: inactive | Activity [3]: inactive | Activity [4]: inactive | Activity [5]: inactive | Activity [6]: inactive
Compound: c1ccc(CNc2c(-c3ccncc3)nc3cnccn23)cc1

Activity [1]: inactive | Activity [2]: inactive | Activity [3]: inactive | Activity [4]: inactive | Activity [5]: inactive | Activity [6]: inactive
Compound: c1ccc(CNc2c(-c3ccncc3)nc3ccccn23)cc1

Activity [1]: inactive | Activity [2]: inactive | Activity [3]: inactive | Activity [4]: inactive | Activity [5]: inactive | Activity [6]: inactive
Compound: CC(C)(C)Nc1c(-c2ccccc2O)nc2ccccn12

EC50 (Toll-like receptor 8; hek293): Not Active
Compound: Cc1ncc(CO)c(-c2nc3ccccn3c2NC2CCCCC2)c1OCc1ccccc1

Activity [1]: inactive | Activity [2]: inactive | Activity [3]: inactive | Activity [4]: inactive | Activity [5]: inactive | Activity [6]: inactive
Compound: CC(C)(C)Nc1c(-c2ccncc2)nc2ccccn12

Activity [1]: inactive | Activity [2]: inactive | Activity [3]: inactive | Activity [4]: inactive | Activity [5]: inactive | Activity [6]: inactive
Compound: c1ccc(-c2nc3cnccn3c2NC2CCCCC2)cc1

EC50 (Toll-like receptor 8; hek293): Not Active
Compound: Cc1ncc(CO)c2c(Nc3ccccn3)c(NC(C)(C)C)oc12

EC50 (Toll-like receptor 8; hek293): Not Active
Compound: Cc1ncc(CO)c2c(Nc3cnccn3)c(NC(C)(C)C)oc12
